According to ChEMBL document CHEMBL1201862, “PubChem BioAssay data set” (2004):
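Cells were grown in 96-well plates and exposed to each compound for 48 hours at five concentrations; endpoints were interpolated linearly between bracketing concentrations, or set to the highest concentration if not reached. Here, GI50 denotes the concentration required for 50% inhibition of growth.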 The source made the active and inactive calls. No stated cut-off is given here; in the data, active = GI50 up to about 1.1 µM and inactive = higher.

Assays:
Experiment in all cases: NCI tumour cell line growth inhibition, 48 h
EKVX = tested on: EKVX
UO-31 = tested on: UO-31
NCI/ADR-RES = tested on: NCI/ADR-RES
ACHN = tested on: ACHN
MDA-MB-435 = tested on: MDA-MB-435
MOLT-4 = tested on: MOLT-4
A498 = tested on: A498
SK-MEL-5 = tested on: SK-MEL-5
NCI-H23 = tested on: NCI-H23
UACC-62 = tested on: UACC-62
HCT-15 = tested on: HCT-15
NCI-H226 = tested on: NCI-H226
Malme-3M = tested on: Malme-3M
HCT-116 = tested on: HCT-116
RXF 393 = tested on: RXF 393
SF-295 = tested on: SF-295
SW-620 = tested on: SW-620
KM12 = tested on: KM12
SR = tested on: SR
CAKI-1 = tested on: CAKI-1

SMILES | GI50 (EKVX) | GI50 (UO-31) | GI50 (NCI/ADR-RES) | GI50 (ACHN) | GI50 (MDA-MB-435) | GI50 (MOLT-4) | GI50 (A498) | GI50 (SK-MEL-5) | GI50 (NCI-H23) | GI50 (UACC-62) | GI50 (HCT-15) | GI50 (NCI-H226) | GI50 (Malme-3M) | GI50 (HCT-116) | GI50 (RXF 393) | GI50 (SF-295) | GI50 (SW-620) | GI50 (KM12) | GI50 (SR) | GI50 (CAKI-1)
O=C1OC[C@H]2[C@@H]1[C@H]1O[C@@H]2C2=C(CCC2)C1=O | > 100 µM (inactive) | > 100 µM (inactive) | > 100 µM (inactive) | > 100 µM (inactive) | > 100 µM (inactive) | 1.11 µM (active) | > 100 µM (inactive) | > 100 µM (inactive) | > 100 µM (inactive) | > 100 µM (inactive) | > 100 µM | > 100 µM (inactive) | > 100 µM (inactive) | > 100 µM (inactive) | > 100 µM (inactive) | > 100 µM (inactive) | > 100 µM (inactive) | > 100 µM (inactive) | > 100 µM (inactive) | –
CCN1C[C@]2(C)CC[C@H](OC)C34C5C[C@@H]6[C@@H](OC)C[C@@](OC)(C5[C@H]6OCc5ccccc5)C(C13)[C@H](OC(C)=O)[C@@H]42 (some centres undefined) | > 100 µM (inactive) | > 100 µM (inactive) | > 100 µM (inactive) | > 100 µM (inactive) | > 100 µM (inactive) | 73.6 µM (inactive) | > 100 µM (inactive) | > 100 µM (inactive) | > 100 µM (inactive) | > 100 µM (inactive) | > 100 µM | > 100 µM (inactive) | > 100 µM (inactive) | > 100 µM (inactive) | > 100 µM (inactive) | > 100 µM (inactive) | > 100 µM (inactive) | > 100 µM (inactive) | > 100 µM (inactive) | –
CCOC(=O)c1c(N2CCCC2)ncn(-c2ccccc2)c1=S | > 100 µM (inactive) | > 100 µM (inactive) | > 100 µM (inactive) | > 100 µM (inactive) | > 100 µM (inactive) | > 100 µM (inactive) | > 100 µM (inactive) | > 100 µM (inactive) | – | > 100 µM (inactive) | > 100 µM | > 100 µM (inactive) | 57.5 µM (inactive) | > 100 µM (inactive) | > 100 µM (inactive) | > 100 µM (inactive) | > 100 µM (inactive) | > 100 µM (inactive) | > 100 µM (inactive) | –
CCCCCCCCCCCCOCCCCCCCCC/C=C/c1ccc2c(c1)OCCOCCOCCOCCO2 | 26.6 µM (inactive) | 19.1 µM (inactive) | 17.5 µM (inactive) | 19.1 µM (inactive) | 18.3 µM (inactive) | 28.7 µM (inactive) | – | 15.5 µM (inactive) | 15.6 µM (inactive) | 15.1 µM (inactive) | 45.9 µM | 17.8 µM (inactive) | 24.6 µM (inactive) | 16 µM (inactive) | 19.2 µM (inactive) | 16.3 µM (inactive) | 30.3 µM (inactive) | 16.8 µM (inactive) | 21 µM (inactive) | 17.3 µM (inactive)
Cc1c(C)c2c(c(N)c1C#N)C(=O)N(NC(=S)Nc1ccccc1)C2=O | > 100 µM (inactive) | 44.4 µM (inactive) | 71.3 µM (inactive) | 50 µM (inactive) | > 100 µM (inactive) | 20.3 µM (inactive) | – | 90.4 µM (inactive) | > 100 µM (inactive) | > 100 µM (inactive) | 67.8 µM | 42.8 µM (inactive) | 72.9 µM (inactive) | 52.6 µM (inactive) | 46 µM (inactive) | 60.8 µM (inactive) | 57.5 µM (inactive) | 91.4 µM (inactive) | 22.4 µM (inactive) | 18.2 µM (inactive)
C[NH+]1[C@@H](Cc2ccccc2)C(=O)O[B-]1(F)c1ccccc1 (some centres undefined) | > 100 µM (inactive) | > 100 µM (inactive) | > 100 µM (inactive) | > 100 µM (inactive) | > 100 µM (inactive) | > 100 µM (inactive) | > 100 µM (inactive) | > 100 µM (inactive) | > 100 µM (inactive) | > 100 µM (inactive) | > 100 µM | > 100 µM (inactive) | > 100 µM (inactive) | > 100 µM (inactive) | – | > 100 µM (inactive) | > 100 µM (inactive) | – | > 100 µM (inactive) | –
O=C1/C(=C/c2cccs2)NC(=S)N1CN1CCCC(CO)C1 (centres undefined) | > 100 µM (inactive) | > 100 µM (inactive) | > 100 µM (inactive) | > 100 µM (inactive) | > 100 µM (inactive) | > 100 µM (inactive) | 32.2 µM (inactive) | > 100 µM (inactive) | > 100 µM (inactive) | > 100 µM (inactive) | > 100 µM | > 100 µM (inactive) | > 100 µM (inactive) | > 100 µM (inactive) | – | 91.4 µM (inactive) | > 100 µM (inactive) | > 100 µM (inactive) | > 100 µM (inactive) | –
CC(=O)N1C(=O)c2cc3ccccc3cc21 | > 100 µM (inactive) | > 100 µM (inactive) | > 100 µM (inactive) | > 100 µM (inactive) | > 100 µM (inactive) | – | 24.7 µM (inactive) | > 100 µM (inactive) | 95.5 µM (inactive) | > 100 µM (inactive) | 90.2 µM | > 100 µM (inactive) | – | 61.4 µM (inactive) | – | – | > 100 µM (inactive) | – | > 100 µM (inactive) | –
Cc1ccc(C[N+](C)(C)N)cc1C | > 10 µM (inactive) | > 10 µM (inactive) | > 10 µM (inactive) | > 10 µM (inactive) | > 10 µM (inactive) | > 10 µM (inactive) | > 10 µM (inactive) | > 10 µM (inactive) | > 10 µM (inactive) | > 10 µM (inactive) | > 10 µM | > 10 µM (inactive) | > 10 µM (inactive) | > 10 µM (inactive) | > 10 µM (inactive) | > 10 µM (inactive) | > 10 µM (inactive) | > 10 µM (inactive) | – | > 10 µM (inactive)
Cc1c2cnccc2c(C)c2c1c1ccccc1n2CCCN | 0.525 µM (active) | 0.83 µM (active) | 0.299 µM (active) | 0.243 µM (active) | 0.129 µM (active) | 0.0843 µM (active) | 0.871 µM (active) | 0.755 µM (active) | 0.474 µM (active) | 0.693 µM (active) | 0.169 µM | 0.873 µM (active) | 0.982 µM (active) | 0.0929 µM (active) | 0.301 µM (active) | – | 0.0787 µM (active) | 0.137 µM (active) | < 0.01 µM (active) | –
CCOC(=O)Oc1ccc2c(c1)c(=O)c1c(NCCN(CC)CC)ccc3nnn2c31 | 6.41 µM (inactive) | 0.165 µM (active) | 2.39 µM (inactive) | 0.406 µM (active) | 3.67 µM (inactive) | < 0.0166 µM (active) | 6.52 µM (inactive) | 1.7 µM (inactive) | 2.48 µM (inactive) | 11.5 µM (inactive) | 0.841 µM | 0.711 µM (active) | 2.78 µM (inactive) | 0.405 µM (active) | 6.08 µM (inactive) | 3.78 µM (inactive) | 0.438 µM (active) | 2.32 µM (inactive) | 0.113 µM (active) | –
